Here are results for one sequence from article PMC8546421, “Molecular modelling of the FOXO4-TP53 interaction to design senolytic peptides for the elimination of senescent cancer cells” (EBioMedicine, 2021).

Like-named read-outs stand apart in the source and are kept apart here. Where no end group is shown, it is not given here.

For assay [1], the system named is senescent A375 human melanoma cells. Description: Orthotopic xenograft of senescent luciferase A375 cells in mouse ears. As to conditions: NSG mouse ears, local injection 50 µL of 5 mg/mL once daily for two days, imaged 24 hours after second treatment; ANOVA p<0.01. The assay is classed as in vivo. The text has this: Mice were aged between 3-8 months and 20-30 g in weight and were housed in specific pathogen free cages. Animals were randomly distributed among treatment groups by assigning mice within the same cage to different treatment regimens. To minimise confounders, mouse treatment order was randomised within each cage. Male and female mice were distributed between all treatment groups since the chemicals used were directly injected and are not metabolized. Researchers were not blinded to the group allocation, but all attempts were made to analyse the data without knowing treatment conditions. NOD.Cg-Prkdcscid Il2rgtm1Wjl/SzJ (NSG) were purchased from The Jackson Laboratory (IMSR Cat# JAX:005557, RRID:IMSR_JAX:005557). NOD.Cg-KitW-41J Tyr + Prkdcscid Il2rgtm1Wjl/ThomJ (NBSGW) were purchased from The Jackson Laboratory (IMSR Cat# JAX:026622, RRID:IMSR_JAX:026622). Immunocompromised mice used for these experiments were all in the NSG background; however, some mice were F1 generation of NSG x NBSGW, thus the brown coat colour as NBSGW mice have tyrosinase. Xenografts containing senescent cells were established by injecting A375-Luc/iRFP human melanoma cells which contained a luciferase expressing gene into immunocompromised NSG ears. Senescence was induced in the cells via doxorubicin treatment (40 nM) then resuspended in DMEM prior to injection. Each ear was then injected with 50 µL containing approximately 1,000,000 cells. The ears were treated once daily for two days with 50 µL of either 5 mg/mL peptide, or saline. To control for confounders, each mouse contained one ear treated with saline (control). For imaging, mice were injected with 3 mg luciferin intravenously and imaged before and after treatment. Transgenic mice (BrafCA, PtenloxP, Tyr::CreERT2) were purchased from The Jackson Laboratory (IMSR Cat# JAX:013590, RRID:IMSR_JAX:013590). These mice were maintained on a C57Bl6 background and all experimental mice contained Tyr::CreER with either Braf^CA/+, Pten^fx/+; Braf^CA/CA, Pten^fx/+, or Braf^CA/+, Pten^fx/fx. […] Hypopigmented melanomas sporadically formed over the next 3-5 months, typically on the back of the mouse. These melanomas were then directly injected with 100 µL of either 20 mg/mL ES2+10%DMSO, saline+10%DMSO, saline+10%Dabrafenib, or 20 mg/mL ES2+10%Dabrafenib. The researchers were not blinded to the experiment, but each mouse contained an internal control and all imaging was done with the same exposure times based upon control tissue. For survival analyses, either 750,000 or 25,000 A375-Luc/iRFP cells were injected intradermally into NSG mice. Different combinations of drugs were locally injected to the region once daily for two days with 50 µL of either 5 mg/mL ES2, 10%Dabrafenib, or 5mg/mL ES2+10%Dabrafenib. Dabrafenib was made at 100 mg/mL in DMSO. Mice were then monitored daily and allowed to age until a humane endpoint was reached according to our IACUC protocol, which in this case was tumours of 2 cm in size. Aged C57Bl6 male mice were purchased from the Jackson Laboratory (IMSR Car# JAX:000664, RRID:IMSR_JAX:000664) at 72 weeks of age and were started on the experiment at 82 weeks. Mice were treated with 3 mg of ES2 via tail vein injection weekly for three weeks and weighed weekly. Blood was drawn prior to beginning experiments and at the endpoint. To generate plasma, blood was centrifuged at 1,500g for 10 minutes, then 2,500g for 10 minutes, then frozen for later analyses. […]

Another assay has as its target T1, FOXO4 (Homo sapiens, UniProt P98177).
T1 construct: purchased OriGene Technologies TP760655
Description: Bio-layer Interferometry, FOXO4. Format: binding. As for the experimental part:
Bio-layer Interferometry (BLI) measurements were performed on a ForteBio Octet RED384 instrument (Molecular Devices) using ForteBio Data Acquisition software 9.0 and ForteBio biosensors (Molecular Devices) according to the manufacturer's instructions. Kinetic assays were carried out at 30°C using settings of Standard Kinetics Acquisition rate (5.0 Hz, averaging by 20) at a sample plate shake speed of 1,000 rpm. Streptavidin sensors (SA) (ForteBio) equilibrated in PBS were mock loaded (no ligand reference sensor) or loaded with 50 nM of N- terminal biotinylated ES2 peptide (New England Peptide, Inc.) with an approximate response of 1 nm. Ligand loaded SA sensors equilibrated in Kinetics buffer (ForteBio) to establish a baseline, were dipped into wells containing 2-fold dilutions of TP53 (Millipore Sigma Aldrich; Cat# 23-034), FOXO4 (OriGene Technologies; Cat# TP760655) or GFP analytes in kinetics buffer, or buffer alone (reference sample). Increasing concentrations of analytes ranging from 6.2 - 200 nM were allowed to associate for 240 secs, followed by 600 sec dissociation step where the TP53/FOXO4-bound sensors were washed with kinetics buffer. Binding curves were analysed using ForteBio Data Analysis HT 10.0 evaluation software. To control for background signal and non-specific binding, raw experimental data were processed by subtracting reference biosensor and reference sample (no ligand). Processed data from at least six different concentrations of analyte binding were globally fit to a 1:1 Langmuir binding model to calculate the association rate constant ka, the dissociation rate constant kd to achieve R^2 > 0.90. Equilibrium dissociation constants KD which defines the strength of the interaction or affinity was calculated as the kinetic dissociation rate constant divided by the kinetic association rate constant.

The subject of assay [2] is Braf/Pten sporadic melanomas. Nature of the assay: TUNEL staining of melanomas in transgenic mice. Format: in vivo, mouse. As to conditions: intratumoural injection daily over two days; single agents vs saline.
Description: Fixed frozen sections of melanomas were stained with the Click-IT Plus TUNEL assay (ThermoFisher C10618) according to the manufacturer's protocol. Stained sections were imaged with a Zeiss A2 upright microscope at either 20x or 10x. At least one of each treatment group were stained and imaged at the same time. All sections from each staining group were set to the same exposure time for TUNEL and DAPI. Any normalization of background levels was performed in Adobe Photoshop and set to the same scale for the entire image and for all other images.

T1 sequence (P98177 whole entry): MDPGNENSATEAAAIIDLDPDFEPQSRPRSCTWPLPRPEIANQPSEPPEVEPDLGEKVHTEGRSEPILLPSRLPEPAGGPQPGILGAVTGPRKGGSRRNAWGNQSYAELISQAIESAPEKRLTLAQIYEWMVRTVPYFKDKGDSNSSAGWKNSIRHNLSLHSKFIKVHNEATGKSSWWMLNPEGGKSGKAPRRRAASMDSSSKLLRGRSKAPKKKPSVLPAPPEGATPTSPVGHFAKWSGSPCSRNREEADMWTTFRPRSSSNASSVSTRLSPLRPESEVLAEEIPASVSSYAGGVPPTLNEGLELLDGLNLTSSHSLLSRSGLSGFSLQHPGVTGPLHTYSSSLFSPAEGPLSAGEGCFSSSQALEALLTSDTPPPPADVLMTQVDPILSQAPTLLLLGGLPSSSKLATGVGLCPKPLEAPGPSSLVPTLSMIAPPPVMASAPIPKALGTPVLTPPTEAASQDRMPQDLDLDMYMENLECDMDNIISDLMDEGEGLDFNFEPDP

By Kd is commonly meant a measure of binding affinity in units of concentration. Read a low Kd as tighter binding. Regarding “PRKGGRRRRAWGRRRRRRRRRRRRRRAPRKRLTLA [ES2]”, the “luciferase signal compared to E1 and saline” value in assay [1] is recorded as “statistically significantly reduced luciferase signal”. Besides, the “affinity for FOXO4 compared to TP53” value at FOXO4 (BLI KD ratio) is given as “approximately 4 fold”. The kon at FOXO4 (BLI, 1:1 Langmuir binding model, read-out: association rate ka) was found to be 117000 M⁻¹ s⁻¹; on FOXO4 (BLI, biotinylated ES2 immobilized on streptavidin sensors, analyte 6.25-200 nM, 30°C, global 1:1 Langmuir fit, read-out: ka) it was 120000 M⁻¹ s⁻¹. Also, the kd on FOXO4 (BLI, biotinylated ES2 immobilized on streptavidin sensors, analyte 6.25-200 nM, 30°C, global 1:1 Langmuir fit) is 7.7e-05 ± 7.2e-07 s⁻¹. The same sequence had a Kd at FOXO4 (BLI, biotinylated ES2 immobilized on streptavidin sensors, analyte 6.25-200 nM, 30°C, kd/ka) of 0.66 ± 0.01 nM. Further, the “effect on apoptosis (TUNEL), in words” value in assay [2] was “no difference”.
